What was measured:
NIH-3T3 = experiment: Formation of stress fiber in NIH-3T3 by addition of lysophospholipids; assay type: cell-based, mouse; conditions: 10 μM, 37° C., 30 minutes, subconfluent serum starvation state; control: no formation
Experimental: NIH-3T3, a mouse-derived fibroblast cell, was incubated in a Dulbecoo's Modified Eagle's Medium (DMEM) containing 10% fetal bovine serum (FBS; made by Moregate), and was used in the Experiment. 2.5 ×10^4 cells of the NIH-3T3 were inoculated in a petri dish (10 cm in diameter) paved with cover glasses of 22 mm in diameter, and the medium was replacing with a FBS-free medium after 24 hours, and the cells were incubated in a serum starvation state for 48 hours. 10 μM of the lysophospholipid was added, and the cells were incubated at 37° C. for 30 minutes for stimulation. Then, the cells were fixed in the Dalbecco's PBS containing 3.7% of paraformaldehyde and 0.1% of Triton X-100 at room temperature for 10 minutes. Thereafter, the cells were stained with 5 units/ml of rhodamine phalloidin (made by Funakoshi) at 37° C. for 1 hour. The cover glasses were washed with PBS thrice, and observation was carried out by a cofocus laser microscope TCS NT Control laser Scanning Microscope (made by Leica).
The product obtained by the A.sp.362-derived PLD reaction was studied with respect to its biochemical activity in order to confirm further that it was a compound which is identical to cPA. Namely, the activity of forming actin stress fiber in a fibroblast cell, one of the physiological activities of cPA, was studied. To NIH-3T3, i.e. a fibroblast cell line derived from mouse, in the subconfluent state in the serum starvation state, each 10 μM of LPA, a chemically synthesized PHYLPA, or cPA, i.e. the PLD reaction product was added at 37° C. for 30 minutes, and then actin stress fiber was stained with Rhodamine phalloidin, and observation was carried out.

[1] = system: primary cultured cerebral cortex cells (neurons); experiment: Oligodendrocyte primary culturing system with cPA or LPA added: cell appearance at early culturing stage; assay type: cell-based, rat; conditions: 5 μM per dish, FIG. 7; for aggregation of cells and bundling of neurons: early culturing stage (P-6th day)
Experimental: (§1) A mother rat of 18 days of pregnancy (E18Wistar Rat) was put into an anesthesia bottle containing an adequate amount of diethyl ether, and was anesthetized. The anesthetization was carried out for 3-5 minutes and stopped just before death. The mother rat was taken out of the anesthesia bottle, put on a suitable vat to lie on its back, and disinfected at the hypogastric area with ethanol. The rat was tom along a cut line about 3-4 cm upward from the tail joint by a scissors, and opened sideward with the scissors to separate the inner membrane from the skin. The skin was tom to expose the inner membrane, which was disinfected again with ethanol and tom to take out the uterus. The Y-shaped section of the uterus was cut while lifting the uterus, and the uterus was taken out. The taken out uterus was dipped in a cooled MEM^− in order to decrease the damage of the fetus brain.
The cerebral cortex was picked by a round pincette into a 35 mm dish to which 2 ml of dispase I (3 U/ml) was added, and was placed in a CO2 5% and humidity 95% incubator at 37° C. for 5 minutes. Then, Dnase (1 ml) was added thereto, and the dish was put in the incubator for 10 minutes again. The resultant solution was sufficiently pipetted while being careful not to make bubbles by a Pasteur pipette having the top end rounded by burning, so that the cells might be free from any bundles. The upper inlet of 50 ml tube was covered with a 70 μm mesh, and the mesh was then wetted with an adequate amount of MEM^−. The cell suspension thus obtained was poured into the tube through the mesh, and about 2 ml of MEM^− was poured to wash the mesh. The mesh was removed, and the resultant was messed up to 30-40 ml with MEM^−. The thus obtained sample was centrifuged at 1,000 rpm for 5 minutes, and the supernatant was removed. […]
(§2) The dish is washed twice with about 5 ml of PBS(−). […] Then, the cell number is counted by a cell counter. The supernatant is discarded, 20-30 ml of MEM^+ (B.S at the third passage) is added, and the resultant is pipetted, and the cell number is counted by a cell counter. […]

astrocytes = experiment: Oligodendrocyte primary culturing system with cPA or LPA added: astrocytes; assay type: cell-based, rat; conditions: 5 μM per dish; for astrocytes by GFAP staining: 2P-6th day, fluorescence microscope, FIG. 10; for state and cell density of astrocytes: 6th day from second passage (2P-6th day), serum-free medium, FIG. 9; for remaining astrocytes: 6th day from third passage (3P-6th day), FIG. 11
Experimental: as §1
(§3) The cerebral cortex was picked by a round pincette into a 35 mm dish to which 2 ml of dispase I (3 U/ml) was added, and was placed in a CO2 5% and humidity 95% incubator at 37° C. for 5 minutes. Then, Dnase (1 ml) was added thereto, and the dish was put in the incubator for 10 minutes again. The resultant solution was sufficiently pipetted while being careful not to make bubbles by a Pasteur pipette having the top end rounded by burning, so that the cells might be free from any bundles. The upper inlet of 50 ml tube was covered with a 70 μm mesh, and the mesh was then wetted with an adequate amount of MEM^−. The cell suspension thus obtained was poured into the tube through the mesh, and about 2 ml of MEM^− was poured to wash the mesh. The mesh was removed, and the resultant was messed up to 30-40 ml with MEM^−. The thus obtained sample was centrifuged at 1,000 rpm for 5 minutes, and the supernatant was removed. The sample was messed up again to 30-40 ml with MEM^−, pipetted and centrifuged again at 1,000 rpm. The supernatant was removed, and the sample was supplied with 30 ml of MEM^−, and sufficiently pipetted, and then the cell number was countered by a cell counter. The cell suspension was inoculated in the PLL-coated dishes to be 1.0×10^7 cells/dish. The liquid was adjusted with MEM^+ to be a final volume of 10 ml/dish, and the cells were cultured in an incubator.
(§4) After disposal of the culture medium, the dish is washed twice with about 3 ml of PBS(−), and 10 ml of the fresh culture medium is poured. The medium change after the 17th day is carried out using B.S (serum-free medium). Only at the first medium change, 200 μl of bFGF is added per dish. It is because the O-2A precursor cell is grown.
(§5) The dish is washed twice with about 5 ml of PBS(−). At the first passage, the dish is left stand for 2-3 minutes after supplying PBS(−) at the second time. 2-3 ml of 0.05% trypsin is added, and the dish is left stand in a 37° C. incubator for 8 minutes. After observation of the cell condition with a microscope, while keeping the trypsin as it was, the dish is supplied with MEM^+ at the same amount as the trypsin, and the cells is pipetted to stop the action of trypsin. The resultant was centrifuged at 1,000 rpm for 5 minutes. After removing the supernatant, 20-30 ml of MEM^− is added, and the resultant is pipetted again, centrifuged at 1,000 rpm for 5 minutes. Then, the cell number is counted by a cell counter. The supernatant is discarded, 20-30 ml of MEM^+ (B.S at the third passage) is added, and the resultant is pipetted, and the cell number is counted by a cell counter. Depending on respective passage stages, the cells are inoculated in respective dishes at the following number, and are cultured while left standing in an incubator.
(§6) From the stage of primary culturing, cPA or LPA was added to be an amount of 5 μM per dish every passage and medium change. […]

oligodendrocytes = experiment: Oligodendrocyte primary culturing system with cPA or LPA added: oligodendrocytes; assay type: cell-based, rat; conditions: 5 μM per dish; for oligodendrocyte cell number and dendrites: further 10 days after 3P-OL, FIG. 13
Experimental: as §1, §3, §4, §5, §6

O-2A precursor cells = experiment: Oligodendrocyte primary culturing system with cPA or LPA added: O-2A precursor cells; assay type: cell-based, rat; conditions: 5 μM per dish; for number of O-2A precursor cells versus control: 6th day from first passage (1P-6th day)
Experimental: as §1, §3
After disposal of the culture medium, the dish is washed twice with about 3 ml of PBS(−), and 10 ml of the fresh culture medium is poured. The medium change after the 17th day is carried out using B.S (serum-free medium). […]
as §2

[2] = 3P-6th day, fluorescence microscope, FIG. 12

Molecule: CCCCCC[C@@H]1C[C@@H]1CCCCCCCC(=O)OC[C@@H]1COP(=O)(O)O1 [PHYLPA]
- formation of actin stress fiber (Rhodamine phalloidin staining) (NIH-3T3): formation of stress fibers was observed

Molecule: CCCCCCCC/C=C\CCCCCCCC(=O)OCC1COP(=O)(O)O1 (stereo not shown) [cPA, 1-oleoyl cyclic phosphatidic acid]
- aggregation of cells and bundling of neurons [1]: causes cells to aggregate and neurons to be bundled
- astrocytes by GFAP staining (astrocytes): exists in a dense tissue
- state and cell density of astrocytes (astrocytes): remained vigorous, and remained high in cell density
- remaining astrocytes (astrocytes): the astrocytes which was deformed to the narrow ones still remain
- survival of astrocytes (conclusion) (astrocytes; all culturing stages): promotes the survival of astrocytes through all their culturing stages
- survival of astrocytes (astrocytes; further 10 days after 3P-OL, FIG. 13): the astrocytes survived even at this stage
- formation of actin stress fiber (Rhodamine phalloidin staining) (NIH-3T3): formation of stress fibers was observed
- MBP staining colour versus control (oligodendrocytes; [2]): develops color stronger
- oligodendrocyte cell number and dendrites (oligodendrocytes): many dendrites of oligodendrocytes around them which were not suffered from apoptosis
- cell density (O-2A precursor cells; 1P-6th day, FIG. 8): much higher than the others
- number of O-2A precursor cells versus control (O-2A precursor cells; FIG. 8): increase in number more remarkably
- proliferation of O-2A precursor cells (conclusion) (O-2A precursor cells; early culturing stage): promotes O-2A precursor cells to proliferate

Molecule: lysophosphatidic acid [LPA]
- cell appearance versus control ([1]; 6th day from primary culturing (P-6th day)): no large difference in cell appearance
- aggregation of cells and bundling of neurons [1]: aggregate to form bundles of the neurons
- astrocytes by GFAP staining (astrocytes): the tissue of the astrocytes can be confirmed
- state and cell density of astrocytes (astrocytes): lowered in cell density, though not so wrong as in the control
- remaining astrocytes (astrocytes): little astrocytes remains
- formation of actin stress fiber (Rhodamine phalloidin staining) (NIH-3T3): formation of stress fibers was observed
- differentiation of oligodendrocytes by 04 staining (oligodendrocytes; 2P-6th day, fluorescence microscope, FIG. 10): elongated dendrites to form fine mesh-shape and differentiations is proceeded
- state of dendrites of oligodendrocytes (oligodendrocytes; 3P-6th day, FIG. 11): dendrites of the oligodendrocytes suffer from aoptosis and begin to be ragged
- extent of MBP staining along the dendrite (oligodendrocytes; 3P-6th day, FIG. 12): even the tip of the dendrite is stained
- MBP staining colour versus control (oligodendrocytes; [2]): develops color stronger
- oligodendrocyte cell number and dendrites (oligodendrocytes): the cell number itself decreased and the dendrite fell ragged
- number of O-2A precursor cells versus control (O-2A precursor cells; FIG. 8): increase in number more remarkably

Reference: patent US20040176329A1, “Drugs for promoting the proliferation, differentiation and/or survival of glial cells containing cyclic phosphatidic acid” (priority 2001, published 2004)
